Results: ChEMBL document CHEMBL1201862, “PubChem BioAssay data set” (2004)
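Growth conditions: 96-well plates. Treatment: test compound, 48 hours, 5 concentrations. Analysis: linear interpolation between bracketing concentrations; unreached endpoints set to highest concentration. Here, GI50 denotes the concentration required for 50% inhibition of growth.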 Activity calls are given as the source filed them. Cut-off read from the data, not from the text of the source: active = GI50 up to about 1.1 µM and inactive = higher.

How the values were obtained:
Assay in all cases: DTP human tumour cell line panel, 48 h
A549 = test system: A549
CCRF-CEM = test system: CCRF-CEM
HL-60 = test system: HL-60
HT-29 = test system: HT-29
MCF7 = test system: MCF7
MDA-MB-231 = test system: MDA-MB-231
MDA-MB-435 = test system: MDA-MB-435
NCI-H226 = test system: NCI-H226
NCI-H460 = test system: NCI-H460
NCI-H522 = test system: NCI-H522
NCI/ADR-RES = test system: NCI/ADR-RES
OVCAR-5 = test system: OVCAR-5
OVCAR-8 = test system: OVCAR-8
PC-3 = test system: PC-3
RXF 393 = test system: RXF 393
SF-268 = test system: SF-268
SNB-75 = test system: SNB-75
UO-31 = test system: UO-31
TK-10 = test system: TK-10
SNB-19 = test system: SNB-19

SMILES	GI50 (A549)	GI50 (CCRF-CEM)	GI50 (HL-60)	GI50 (HT-29)	GI50 (MCF7)	GI50 (MDA-MB-231)	GI50 (MDA-MB-435)	GI50 (NCI-H226)	GI50 (NCI-H460)	GI50 (NCI-H522)	GI50 (NCI/ADR-RES)	GI50 (OVCAR-5)	GI50 (OVCAR-8)	GI50 (PC-3)	GI50 (RXF 393)	GI50 (SF-268)	GI50 (SNB-75)	GI50 (UO-31)	GI50 (TK-10)	GI50 (SNB-19)
CCOC(=O)/C(=C/NC(=S)Nc1c(CC)cccc1C(C)(C)C)C(=O)c1ccccc1	> 100 µM (inactive)	> 100 µM (inactive)	59.3 µM (inactive)	> 100 µM (inactive)	88.9 µM (inactive)	> 100 µM (inactive)	> 100 µM (inactive)	> 100 µM (inactive)	10 µM (inactive)	> 100 µM (inactive)	> 100 µM (inactive)	> 100 µM (inactive)	> 100 µM (inactive)	> 100 µM (inactive)	> 100 µM (inactive)	> 100 µM (inactive)	29.3 µM (inactive)	14.7 µM (inactive)		
Cc1cn([C@@H]2C[C@H](CO)[C@@H]2O)c(=O)[nH]c1=O	> 100 µM (inactive)	> 100 µM (inactive)	> 100 µM (inactive)	> 100 µM (inactive)	> 100 µM (inactive)	> 100 µM (inactive)	> 100 µM (inactive)	> 100 µM (inactive)	> 100 µM (inactive)	> 100 µM (inactive)	> 100 µM (inactive)	> 100 µM (inactive)	> 100 µM (inactive)	> 100 µM (inactive)	> 100 µM (inactive)	> 100 µM (inactive)	> 100 µM (inactive)	> 100 µM (inactive)	> 100 µM (inactive)	
CCOC(=O)CC(=O)Nc1c(C(=O)OCC)sc2nc(SC)nc(Nc3ccc(OC)c(OC)c3)c12	0.36 µM (active)	> 100 µM (inactive)	> 100 µM (inactive)	60.1 µM (inactive)	38.2 µM (inactive)	18.5 µM (inactive)	> 100 µM (inactive)	75.2 µM (inactive)		13.6 µM (inactive)	8.77 µM (inactive)	52.6 µM (inactive)	34.4 µM (inactive)	> 100 µM (inactive)	10.7 µM (inactive)	3.19 µM (inactive)	1.99 µM (inactive)	> 100 µM (inactive)	17.8 µM (inactive)	
CCOC(=O)c1cc2c([nH]1)C(=O)CC1=C2CCN1Cc1ccccc1	21.4 µM (inactive)	4.43 µM (inactive)	7.4 µM (inactive)	16 µM (inactive)	13.3 µM (inactive)	13.2 µM (inactive)	13.2 µM (inactive)	0.585 µM (active)	18.4 µM (inactive)	17.9 µM (inactive)	20.7 µM (inactive)		23.1 µM (inactive)	20.5 µM (inactive)	13.9 µM (inactive)	21.3 µM (inactive)	23.3 µM (inactive)	15.3 µM (inactive)	13.9 µM (inactive)	17.5 µM (inactive)
COc1ccc(CNc2nc(NCc3ccc(OC)cc3)nc(N3CCOCC3)n2)cc1	7.13 µM (inactive)		2.74 µM (inactive)	2.79 µM (inactive)	4.15 µM (inactive)	6.12 µM (inactive)	2.02 µM (inactive)	19.2 µM (inactive)	4.23 µM (inactive)	3.95 µM (inactive)	2.84 µM (inactive)	4.26 µM (inactive)	6.81 µM (inactive)	4.05 µM (inactive)	> 100 µM (inactive)		5.51 µM (inactive)	62.8 µM (inactive)	3.4 µM (inactive)	6.31 µM (inactive)
N#Cc1c(-c2ccco2)c2c(n(C3OC(CO)C(O)C(O)C3O)c1=S)CCCC2 (stereo not drawn)	> 100 µM (inactive)	> 100 µM (inactive)	> 100 µM (inactive)	> 100 µM (inactive)	> 100 µM (inactive)	> 100 µM (inactive)	> 100 µM (inactive)	> 100 µM (inactive)	> 100 µM (inactive)	> 100 µM (inactive)	> 100 µM (inactive)	> 100 µM (inactive)	> 100 µM (inactive)	> 100 µM (inactive)	> 100 µM (inactive)	> 100 µM (inactive)	0.0239 µM (active)		> 100 µM (inactive)	
Oc1cc(-c2ccccc2)nc2ncccc12	0.385 µM (active)	0.0867 µM (active)	0.0471 µM (active)	0.0646 µM (active)	0.0372 µM (active)	0.418 µM (active)	0.0133 µM (active)	0.502 µM (active)	0.12 µM (active)	0.0525 µM (active)	0.0655 µM (active)		0.22 µM (active)	0.0681 µM (active)	0.106 µM (active)	1.93 µM (inactive)	0.0975 µM (active)	0.272 µM (active)	0.206 µM (active)	0.222 µM (active)
O=C1NC(=S)N/C1=C\c1ccc(Sc2ccccc2C(=O)O)s1			44.8 µM (inactive)	> 100 µM (inactive)	> 100 µM (inactive)	> 100 µM (inactive)	> 100 µM (inactive)	> 100 µM (inactive)	> 100 µM (inactive)	22.1 µM (inactive)	> 100 µM (inactive)	> 100 µM (inactive)	> 100 µM (inactive)	> 100 µM (inactive)	> 100 µM (inactive)	> 100 µM (inactive)	> 100 µM (inactive)	> 100 µM (inactive)	> 100 µM (inactive)	> 100 µM (inactive)
FC(F)(F)c1cccc(-c2nc3ccccc3c3c2[C@@]2(N4CCCC4)CCCC[C@@H]32)c1	31.7 µM (inactive)	29.6 µM (inactive)	25.8 µM (inactive)	29.1 µM (inactive)	20 µM (inactive)	18.5 µM (inactive)	23.6 µM (inactive)	51.2 µM (inactive)	28.1 µM (inactive)	13.3 µM (inactive)	> 100 µM (inactive)	34.4 µM (inactive)		37 µM (inactive)	38.1 µM (inactive)	33.3 µM (inactive)	30.1 µM (inactive)	18 µM (inactive)	30.3 µM (inactive)	50.9 µM (inactive)
NCCN1CC2CCC(CC2)C1	> 10 µM (inactive)	> 10 µM (inactive)	> 10 µM (inactive)	> 10 µM (inactive)	> 10 µM (inactive)	> 10 µM (inactive)	> 10 µM (inactive)	> 10 µM (inactive)	> 10 µM (inactive)	> 10 µM (inactive)	> 10 µM (inactive)		> 10 µM (inactive)	> 10 µM (inactive)	> 10 µM (inactive)	> 10 µM (inactive)	> 10 µM (inactive)	> 10 µM (inactive)	> 10 µM (inactive)	> 10 µM (inactive)
O=C1Oc2ccccc2C(=O)/C1=C/N1C(=O)/C(=C/c2ccc([N+](=O)[O-])cc2)SC1=S	26.7 µM (inactive)	34 µM (inactive)	36.1 µM (inactive)	32.6 µM (inactive)	35.6 µM (inactive)	24.9 µM (inactive)	16.4 µM (inactive)	15.1 µM (inactive)	18.5 µM (inactive)	20.7 µM (inactive)	23.7 µM (inactive)	34.4 µM (inactive)	21.8 µM (inactive)	18.2 µM (inactive)	25.7 µM (inactive)	23.2 µM (inactive)	16.6 µM (inactive)			21.9 µM (inactive)
